Literature values in US20160347856A1, “Use of Anti-MUC1 Maytansinoid Immunoconjugate Antibody for the Treatment of Solid Tumors” (SANOFI, priority 2013, published 2016).

Legend:
[1] = poor therapeutic effects because of high systemic toxicity; Foster et al. (1996), Wolff et al. (1996)
[2] = Bhuyan et al. (1982)
mice = settings: single intravenous dose of 12.5 μg/kg; Reynolds et al. (1986)

| SMILES | Clinical evaluation [1] | Potency in vitro relative to doxorubicin, methotrexate and vincristine [2] | Toxicity after administration to mice (mice) |
| --- | --- | --- | --- |
| Cc1c[nH]c2c1[C@@]13C[C@@H]1CN(C(=O)c1cc4cc(NC(=O)c5cc6ccccc6o5)ccc4[nH]1)C3=CC2=O [Adozelesin] | disappointing results | – | – |
| COc1c(O)c2c(c3cc(C(=O)N4CCc5c4c(O)c(OC)c4[nH]c(C(=O)N6CC7CC78C6=CC(=O)c6[nH]cc(C)c68)cc54)[nH]c13)CCN2C(N)=O (stereo not shown) [CC-1065] | – | about 1000 fold | delayed hepatotoxicity leading to mortality on day 50 |
| CCN(CC)c1ccc2cc(C(=O)Nc3ccc4[nH]c(C(=O)N5C[C@@H](CCl)c6c5cc(OC(=O)Nc5ccccc5)c5[nH]cc(C)c65)cc4c3)oc2c1 [Carzelesin] | disappointing results | – | – |
